# Reference: US9994551B2, “Pyridazine derivatives as RORc modulators” (Genentech, Inc., priority 2015, dated 2018)
# Biological target: T1, RORc ligand binding domain (Homo sapiens, UniProt P51449)
# T1 construct: host or cells: E. coli
# T1 sequence (P51449 269-508 limits assumed): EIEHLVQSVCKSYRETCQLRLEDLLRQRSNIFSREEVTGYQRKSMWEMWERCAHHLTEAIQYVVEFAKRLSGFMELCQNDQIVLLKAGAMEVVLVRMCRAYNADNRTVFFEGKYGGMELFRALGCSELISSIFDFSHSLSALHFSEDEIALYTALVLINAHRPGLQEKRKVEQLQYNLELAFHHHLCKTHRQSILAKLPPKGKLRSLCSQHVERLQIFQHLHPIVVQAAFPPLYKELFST
# Experiment: In vitro RORc ligand binding assay (25-[3H]hydroxycholesterol displacement, filter binding)
row,Structure (SMILES),IC50
1,"CC[C@H](O[C@@]12CC[C@@H](c3cc(-c4c(F)cccc4F)nnc31)C2(C)C)C(=O)NCCS(C)(=O)=O [Compound 26, (S)-2-(((5S,8R)-3-(2,6-difluorophenyl)-9,9-dimethyl-5,6,7,8-tetrahydro-5,8-methanocinnolin-8-yl)oxy)-N-(2-(methylsulfonyl)ethyl)butanamide]",42.7 nM
2,"CC1(C)[C@H]2CC[C@]1([C@H]1CCCN(C(=O)c3cocn3)C1)c1nnc(-c3c(F)cccc3F)cc12 [Compound 122, [3-[5-(2,6-difluorophenyl)-11,11-dimethyl-3,4-diazatricyclo[6.2.1.02,7]undeca-2,4,6-trien-1-yl]-1-piperidyl]-oxazol-4-yl-methanone]",21 nM
3,"CN1CCN[C@H]([C@@]23CC[C@@H](c4cc(-c5c(F)cccc5F)nnc42)C3(C)C)C1 [Compound 183, 5-(2,6-difluorophenyl)-11,11-dimethyl-1-(4-methylpiperazin-2-yl)-3,4-diazatricyclo[6.2.1.02,7]undeca-2,4,6-triene]",13 nM
4,"C[C@@H](O[C@@]12CC[C@@H](c3cc(-c4c(F)cccc4F)nnc31)C2(C)C)C(N)=O [Compound 42, (R)-2-(((5S,8R)-3-(2,6-difluorophenyl)-9,9-dimethyl-5,6,7,8-tetrahydro-5,8-methanocinnolin-8-yl)oxy)propanamide]",14.4 nM
5,"CC1(C)[C@H]2CC[C@]1(Oc1cccnc1)c1nnc(-c3c(F)cccc3F)cc12 [Compound 27, (5S,8R)-3-(2,6-difluorophenyl)-9,9-dimethyl-8-(pyridin-3-yloxy)-5,6,7,8-tetrahydro-5,8-methanocinnoline]",67 nM
6,"CC1(C)[C@H]2CC[C@]1([C@H]1CCCN(C(=O)NCCS(C)(=O)=O)C1)c1nnc(-c3c(F)cccc3F)cc12 [Compound 158, 3-[5-(2,6-difluorophenyl)-11,11-dimethyl-3,4-diazatricyclo[6.2.1.02,7]undeca-2,4,6-trien-1-yl]-N-(2-methylsulfonylethyl)piperidine-1-carboxamide]",13 nM
7,"CC1(C)[C@H]2CC[C@]1(OCc1ncccn1)c1nnc(-c3c(F)cccc3F)cc12 [Compound 13, (5S,8R)-3-(2,6-difluorophenyl)-9,9-dimethyl-8-(pyrimidin-2-ylmethoxy)-5,6,7,8-tetrahydro-5,8-methanocinnoline]",515 nM
8,"CC1(C)[C@H]2CC[C@]1(Oc1cncc(C(=O)NCCO)n1)c1nnc(-c3c(F)cccc3F)cc12 [Compound 30, 6-(((5S,8R)-3-(2,6-difluorophenyl)-9,9-dimethyl-5,6,7,8-tetrahydro-5,8-methanocinnolin-8-yl)oxy)-N-(2-hydroxyethyl)pyrazine-2-carboxamide]",836 nM
9,"CC1(C)[C@H]2CC[C@]1([C@@H]1CCCNC1=O)c1nnc(-c3c(F)cccc3F)cc12 [Compound 139, 3-[5-(2,6-difluorophenyl)-11,11-dimethyl-3,4-diazatricyclo[6.2.1.02,7]undeca-2,4,6-trien-1-yl]piperidin-2-one]",4400 nM
10,"CNC(=O)c1cnc(O[C@@]23CC[C@@H](c4cc(-c5c(F)cccc5F)nnc42)C3(C)C)cn1 [Compound 9, 5-(((5S,8R)-3-(2,6-difluorophenyl)-9,9-dimethyl-5,6,7,8-tetrahydro-5,8-methanocinnolin-8-yl)oxy)-N-methylpyrazine-2-carboxamide]",325 nM
11,"CC[C@@H](O[C@@]12CC[C@@H](c3cc(-c4c(F)cccc4F)nnc31)C2(C)C)c1nc[nH]n1 [Compound 40, (5S,8R)-8-((R)-1-(1H-1,2,4-triazol-3-yl)propoxy)-3-(2,6-difluorophenyl)-9,9-dimethyl-5,6,7,8-tetrahydro-5,8-methanocinnoline]",50.1 nM
12,"CC1(C)[C@H]2CC[C@]1(Oc1ccc(=O)[nH]c1)c1nnc(-c3c(F)cccc3F)cc12 [Compound 33, 5-(((5S,8R)-3-(2,6-difluorophenyl)-9,9-dimethyl-5,6,7,8-tetrahydro-5,8-methanocinnolin-8-yl)oxy)pyridin-2(1H)-one]",120 nM
13,"CC1(C)[C@H]2CC[C@]1([C@H]1CCCN(c3cnccn3)C1)c1nnc(-c3c(F)cccc3F)cc12 [Compound 165, 5-(2,6-difluorophenyl)-11,11-dimethyl-1-(1-pyrazin-2-yl-3-piperidyl)-3,4-diazatricyclo[6.2.1.02,7]undeca-2,4,6-triene]",24 nM
14,"CCNC(=O)[C@H](CC)O[C@@]12CC[C@@H](c3cc(-c4c(F)cccc4F)nnc31)C2(C)C [Compound 19, (S)-2-(((5S,8R)-3-(2,6-difluorophenyl)-9,9-dimethyl-5,6,7,8-tetrahydro-5,8-methanocinnolin-8-yl)oxy)-N-ethylbutanamide]",34.7 nM
15,"CC1(C)[C@H]2CC[C@]1([C@H]1CCCN(C(=O)NC3CCC3)C1)c1nnc(-c3c(F)cccc3F)cc12 [Compound 149, N-cyclobutyl-3-[5-(2,6-difluorophenyl)-11,11-dimethyl-3,4-diazatricyclo[6.2.1.02,7]undeca-2,4,6-trien-1-yl]piperidine-1-carboxamide]",8.2 nM
16,"CC1(C)[C@H]2CC[C@]1(Oc1cnccn1)c1nnc(-c3c(F)cccc3F)cc12 [Compound 11, (5S,8R)-3-(2,6-difluorophenyl)-9,9-dimethyl-8-(pyrazin-2-yloxy)-5,6,7,8-tetrahydro-5,8-methanocinnoline]",79.9 nM
17,"C[C@H](O)CNC(=O)N1CCC[C@H]([C@@]23CC[C@@H](c4cc(-c5c(F)cccc5F)nnc42)C3(C)C)C1 [Compound 151, 3-[5-(2,6-difluorophenyl)-11,11-dimethyl-3,4-diazatricyclo[6.2.1.02,7]undeca-2,4,6-trien-1-yl]-N-(2-hydroxypropyl)piperidine-1-carboxamide]",7.7 nM
18,"CC1(C)[C@H]2CC[C@]1([C@H]1CN(c3nc(CO)co3)CCO1)c1nnc(-c3c(F)cccc3F)cc12 [Compound 128, [2-[2-[5-(2,6-difluorophenyl)-11,11-dimethyl-3,4-diazatricyclo[6.2.1.02,7]undeca-2,4,6-trien-1-yl]morpholin-4-yl]oxazol-4-yl]methanol]",37 nM
19,"CC[C@@H](O[C@@]12CC[C@@H](c3cc(-c4c(F)cccc4F)nnc31)C2(C)C)c1nc(COC)no1 [Compound 41, 5-((R)-1-(((5S,8R)-3-(2,6-difluorophenyl)-9,9-dimethyl-5,6,7,8-tetrahydro-5,8-methanocinnolin-8-yl)oxy)propyl)-3-(methoxymethyl)-1,2,4-oxadiazole]",4 nM
20,"Cc1n[nH]c(N2CCO[C@@H]([C@@]34CC[C@@H](c5cc(-c6c(F)cccc6F)nnc53)C4(C)C)C2)n1 [Compound 93, (S)-2-((5R,8R)-3-(2,6-difluorophenyl)-9,9-dimethyl-5,6,7,8-tetrahydro-5,8-methanocinnolin-8-yl)-4-(3-methyl-1H-1,2,4-triazol-5-yl)morpholine]",191 nM
21,"CC1(C)[C@H]2CC[C@]1(Oc1ccccc1)c1nnc(-c3c(F)cccc3F)cc12 [Compound 24, (5S,8R)-3-(2,6-difluorophenyl)-9,9-dimethyl-8-phenoxy-5,6,7,8-tetrahydro-5,8-methanocinnoline]",14.4 nM
22,"Cc1nc(N2CCO[C@H]([C@@]34CC[C@@H](c5cc(-c6c(F)cccc6F)nnc53)C4(C)C)C2)n(Cc2ccccc2)n1 [Compound 143, 4-(2-benzyl-5-methyl-1,2,4-triazol-3-yl)-2-[5-(2,6-difluorophenyl)-11,11-dimethyl-3,4-diazatricyclo[6.2.1.02,7]undeca-2,4,6-trien-1-yl]morpholine]",5.6 nM
